IC50 data for 32 compounds are collected here from patent US9499553B2 (CHUGAI SEIYAKU KABUSHIKI KAISHA, priority 2013, dated 2016).

One assay deals with T1, human NaPi-IIb (Homo sapiens, UniProt O95436).
T1 construct: expressed in transfected cells
T1 sequence (O95436 1-690): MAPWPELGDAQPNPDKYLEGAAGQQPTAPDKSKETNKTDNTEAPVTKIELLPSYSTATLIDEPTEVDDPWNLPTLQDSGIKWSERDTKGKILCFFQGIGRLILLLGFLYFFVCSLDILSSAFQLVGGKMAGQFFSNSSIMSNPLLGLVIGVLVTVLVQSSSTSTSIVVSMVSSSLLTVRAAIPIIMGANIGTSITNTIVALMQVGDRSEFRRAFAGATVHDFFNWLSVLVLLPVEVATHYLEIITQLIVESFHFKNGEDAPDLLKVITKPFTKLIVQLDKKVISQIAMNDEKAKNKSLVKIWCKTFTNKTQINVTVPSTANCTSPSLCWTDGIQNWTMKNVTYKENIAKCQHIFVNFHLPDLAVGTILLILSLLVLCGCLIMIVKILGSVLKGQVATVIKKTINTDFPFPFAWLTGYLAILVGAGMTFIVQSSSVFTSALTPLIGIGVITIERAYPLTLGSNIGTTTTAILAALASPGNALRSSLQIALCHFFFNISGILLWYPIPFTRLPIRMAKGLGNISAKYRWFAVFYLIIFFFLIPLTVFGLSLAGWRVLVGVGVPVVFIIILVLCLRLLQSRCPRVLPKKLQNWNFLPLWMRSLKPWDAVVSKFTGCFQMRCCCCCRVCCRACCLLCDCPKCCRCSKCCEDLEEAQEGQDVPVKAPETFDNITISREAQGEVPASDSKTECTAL
Nature of the assay: Inhibitory effect on 33PO4 uptake into human NaPi-IIb-expressing CHO cells. Type of assay: cell-based. Conditions: read-out: IC50. The essentials: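 Stable human NaPi-IIb CHO line (G418-selected), plated and cultured overnight; ³³PO4 added in buffer A and uptake run at room temperature. Cells washed with ice-cold buffer A, then uptake counted by liquid scintillation.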
Broadly, the IC50 is the concentration needed to halve the response being measured. Take `C[C@]12CCCN1N(Cc1cccc(F)c1F)C(=O)C(C(=O)Nc1ccc(Br)cc1)=C2O` [Example 77]: the IC50 was determined as 8.9 µM.
Regarding `CN1N(Cc2cccc(F)c2F)C(=O)C(C(=O)Nc2ccc(C(F)(F)F)cc2-c2cncc(C(F)(F)F)c2)=C(O)C1(C)C` [Example 305], the IC50 stood at 5.9 µM.
On to `C[C@]12CCCN1N(Cc1c(F)cc(OCCCCCCOC[C@H](O)CO)cc1F)C(=O)C(C(=O)Nc1ccc(C(F)(F)F)cc1-c1ccc(C(F)(F)F)nc1)=C2O` [Example 155], for which the IC50 was 2.3 µM.
On the same count and under the same terms, with `CN1N(Cc2cccc(F)c2F)C(=O)C(C(=O)Nc2ccc(Cl)cc2-c2cc(C(F)(F)F)ncn2)=C(O)C12CCC2` [Example 255] the figure was 9.8 µM; with `C[C@]12CCCN1N(Cc1c(F)cccc1F)C(=O)C(C(=O)Nc1ccc(C(F)(F)F)cc1-c1ccc(C(F)(F)F)nc1)=C2O` [Example 203], 2 µM; with `C[C@]12CCCN1N(Cc1cccc(F)c1Cl)C(=O)C(C(=O)Nc1ccc(C(F)(F)F)cc1-c1ccc(C(F)(F)F)nc1)=C2O` [Example 201], 1.3 µM.
Same read-out and setting: under `COc1cc(C)c(-c2cc(C(F)(F)F)ccc2NC(=O)C2=C(O)[C@@]3(C)CCCN3N(Cc3cccc(F)c3F)C2=O)cn1` [Example 80] stands 12.5 µM; under `COc1c(C#N)ncnc1-c1cc(C(F)(F)F)ccc1NC(=O)C1=C(O)[C@@]2(C)CCCN2N(Cc2cccc(F)c2F)C1=O` [Example 25], 10.1 µM.
As to `C[C@]12CCCN1N(Cc1ccccc1)C(=O)C(C(=O)Nc1ccc(C(F)(F)F)cc1-c1cc(C(F)(F)F)ncn1)=C2O` [Example 188], the IC50 was found to be 6.1 µM.
Regarding `C[C@H]1COC[C@H](C)N1CCOc1ccc(CN2C(=O)C(C(=O)Nc3ccc(C(F)(F)F)cc3-c3cc(C(F)(F)F)ncn3)=C(O)C3(CCC3)N2C)c(F)c1F` [Example 343], the IC50 stood at 21 µM.
With `COc1cccc(-c2cc(C(F)(F)F)ccc2NC(=O)C2=C(O)[C@@]3(C)CCCN3N(Cc3ccc(C#CCOCCO)c(F)c3F)C2=O)c1OC` [Example 137], the IC50 was determined as 19.7 µM.
Turning to `C[C@]12CCCN1N(Cc1cccc(F)c1F)C(=O)C(C(=O)Nc1ccc(C(F)(F)F)cc1-c1ccc(C(F)(F)F)nc1)=C2O` [Example 90], the IC50 worked out at 2.4 µM.
Take `COc1cc(CN2C(=O)C(C(=O)Nc3ccc(C(F)(F)F)cc3-c3ccc(C(F)(F)F)nc3)=C(O)[C@@]3(C)CCCN23)cc(OC)c1` [Example 202]: the IC50 turned out to be 6.1 µM.
With `C[C@]12CCCN1N(Cc1cc(F)ccc1F)C(=O)C(C(=O)Nc1ccc(C(F)(F)F)cc1-c1ccc(C(F)(F)F)nc1)=C2O` [Example 172], the IC50 came out at 2.4 µM.
Still for that read-out and setting: under `CCN1[C@@H](C(C)(C)C)C(O)=C(C(=O)Nc2cc(F)c(Br)c(F)c2)C(=O)N1Cc1cccc(F)c1F` [Example 246] stands 8.6 µM; under `C[C@]12CCCN1N(Cc1cccc(Cl)c1F)C(=O)C(C(=O)Nc1ccc(C(F)(F)F)cc1-c1ccc(C(F)(F)F)nc1)=C2O` [Example 198], 2.4 µM.
Regarding `Cc1cc(-c2cc(C(F)(F)F)ccc2NC(=O)C2=C(O)[C@@]3(C)CCCN3N(Cc3cccc(F)c3F)C2=O)cnc1C#N` [Example 101], the IC50 stood at 9.4 µM.
`CN1N(Cc2cccc(F)c2F)C(=O)C(C(=O)Nc2ccc(Br)c(C(F)(F)F)n2)=C(O)C12CCC2` [Example 258]: the IC50 amounted to 2.7 µM.
Consider `Cc1c(-c2cc(C(F)(F)F)ccc2NC(=O)C2=C(O)C3(CCC3)N(C)N(Cc3ccc(OCCN4CCOCC4)c(F)c3F)C2=O)ncnc1C(F)(F)F` [Example 285], for which the IC50 is 8.5 µM.
As for `C[C@]12CCCN1N(Cc1cc(F)ccc1Br)C(=O)C(C(=O)Nc1cc(F)c(Br)c(F)c1)=C2O` [Example 217], the IC50 amounted to 4.7 µM.
Regarding `C[C@]12CCCN1N(Cc1ccc(C#CCN3CCOCC3=O)c(F)c1F)C(=O)C(C(=O)Nc1ccc(Br)c(F)c1)=C2O` [Example 133], the IC50 stood at 13.1 µM.

Staying with this assay, now noted: read-out: IC50 against 33PO4 uptake into human NaPi-IIb-expressing cells.
Turning to `CN1N(Cc2ccc(OCCCCCOCCO)c(F)c2F)C(=O)C(C(=O)Nc2ccc(C(F)(F)F)cc2-c2cc(C(F)(F)F)ncn2)=C(O)C12CCCC2` [Example 397], the IC50 was 8.6 µM.
Take `CN1N(Cc2ccc(OC(C)(C)CN3CCOCC3)c(F)c2F)C(=O)C(C(=O)Nc2ccc(C(F)(F)F)cc2-c2cc(C(F)(F)F)ncn2)=C(O)C12CCC2` [Example 407, 6-[[2,3-Difluoro-4-(2-methyl-1-morpholin-4-ylpropan-2-yl)oxyphenyl]methyl]-9-hydroxy-5-methyl-7-oxo-N-[4-(trifluoromethyl)-2-[6-(trifluoromethyl)pyrimidin-4-yl]phenyl]-5,6-diazaspiro[3.5]non-8-ene-8-carboxamide]: the IC50 was 6.9 µM.
Take `COC[C@@H]1CCCN1CCOc1ccc(CN2C(=O)C(C(=O)Nc3ccc(C(F)(F)F)cc3-c3cc(C(F)(F)F)ncn3)=C(O)C3(CCCC3)N2C)c(F)c1F` [Example 375]: the IC50 is 17.8 µM.
In the case of `COCCN(C)CCOCCOCCOCCOCCOc1ccc(CN2C(=O)C(C(=O)Nc3ccc(C(F)(F)F)cc3-c3cc(C(F)(F)F)ncn3)=C(O)C3(CCCC3)N2C)c(F)c1F` [Example 432], the IC50 stood at 6.3 µM.
As for `CN(CCOCCOc1ccc(CN2C(=O)C(C(=O)Nc3ccc(C(F)(F)F)cc3-c3cc(C(F)(F)F)ncn3)=C(O)C3(CCCC3)N2C)c(F)c1F)C[C@H](O)[C@@H](O)[C@H](O)[C@H](O)CO` [Example 420, 7-[[2,3-Difluoro-4-[2-[2-[methyl-[(2S,3R,4R,5R)-2,3,4,5,6-pentahydroxyhexyl]amino]ethoxy]ethoxy]phenyl]methyl]-10-hydroxy-6-methyl-8-oxo-N-[4-(trifluoromethyl)-2-[6-(trifluoromethyl)pyrimidin-4-yl]phenyl]-6,7-diazaspiro[4.5]dec-9-ene-9-carboxamide], the IC50 was 18.6 µM.
With `C[C@@H]1COC[C@H](C)N1CCOc1ccc(CN2C(=O)C(C(=O)Nc3ccc(C(F)(F)F)cc3-c3cc(C(F)(F)F)ncn3)=C(O)C3(CCCC3)N2C)c(F)c1F` [Example 370], the IC50 is 18.2 µM.
On to `CN1N(Cc2ccc(OCCN3[C@@H]4COC[C@H]3C4)c(F)c2F)C(=O)C(C(=O)Nc2ccc(C(F)(F)F)cc2-c2cc(C(F)(F)F)ncn2)=C(O)C12CCCC2` [Example 380], for which the 50% inhibitory concentration (IC50) turned out to be 20.2 µM.
As for `COCCN(C)CCOCCOCCOCCOc1ccc(CN2C(=O)C(C(=O)Nc3ccc(C(F)(F)F)cc3-c3cc(C(F)(F)F)ncn3)=C(O)C3(CCCC3)N2C)c(F)c1F` [Example 431], the IC50 stood at 6.2 µM.
Turning to `COC(=O)[C@@H]1CCCN1CCOc1ccc(CN2C(=O)C(C(=O)Nc3ccc(C(F)(F)F)cc3-c3cc(C(F)(F)F)ncn3)=C(O)C3(CCC3)N2C)c(F)c1F` [Example 355], the IC50 amounted to 15 µM.
Consider `CN1N(Cc2ccc(OCCn3cncn3)c(F)c2F)C(=O)C(C(=O)Nc2ccc(C(F)(F)F)cc2-c2cc(C(F)(F)F)ncn2)=C(O)C12CCC2` [Example 352], for which the IC50 was determined as 16.7 µM.
On to `CN1N(Cc2ccc(OCCCCOCCCO)c(F)c2F)C(=O)C(C(=O)Nc2ccc(C(F)(F)F)cc2-c2cc(C(F)(F)F)ncn2)=C(O)C12CCCC2` [Example 399], for which the IC50 was determined as 7.8 µM.
